Experimental data taken from publication PMC9370283, “New Quinoxaline-Based Derivatives as PARP-1 Inhibitors: Design, Synthesis, Antiproliferative, and Computational Studies” (Molecules, 2022).

How the values were obtained:
MDA-MB-436 = experiment: in vitro cytotoxicity, MTT assay, MDA-MB-436; conditions: for % viability MDA-MB-436: MTT lab report
MDA-MB-436 cells [1] = experiment: Cyto-ID autophagy assay, flow cytometry; conditions: IC50 value of compound, 24 h
Excerpt: medium was used as a negative control.
(§1) Mean net fluorescent intensities (NFI) were quantified.

MDA-MB-436 cells [2] = experiment: cell cycle analysis, PI staining, flow cytometry; conditions: IC50 concentration 2.57 µM, 48 h
Excerpt: medium was used as a negative control.
as §1

PARP-1 = biological target: T1, PARP-1 (Homo sapiens, UniProt P09874); experiment: colorimetric 96-well PARP-1 assay kit (BPS Bioscience); format: biochemical
T1 construct: purchased BPS Bioscience 80580
T1 sequence (P09874 whole entry): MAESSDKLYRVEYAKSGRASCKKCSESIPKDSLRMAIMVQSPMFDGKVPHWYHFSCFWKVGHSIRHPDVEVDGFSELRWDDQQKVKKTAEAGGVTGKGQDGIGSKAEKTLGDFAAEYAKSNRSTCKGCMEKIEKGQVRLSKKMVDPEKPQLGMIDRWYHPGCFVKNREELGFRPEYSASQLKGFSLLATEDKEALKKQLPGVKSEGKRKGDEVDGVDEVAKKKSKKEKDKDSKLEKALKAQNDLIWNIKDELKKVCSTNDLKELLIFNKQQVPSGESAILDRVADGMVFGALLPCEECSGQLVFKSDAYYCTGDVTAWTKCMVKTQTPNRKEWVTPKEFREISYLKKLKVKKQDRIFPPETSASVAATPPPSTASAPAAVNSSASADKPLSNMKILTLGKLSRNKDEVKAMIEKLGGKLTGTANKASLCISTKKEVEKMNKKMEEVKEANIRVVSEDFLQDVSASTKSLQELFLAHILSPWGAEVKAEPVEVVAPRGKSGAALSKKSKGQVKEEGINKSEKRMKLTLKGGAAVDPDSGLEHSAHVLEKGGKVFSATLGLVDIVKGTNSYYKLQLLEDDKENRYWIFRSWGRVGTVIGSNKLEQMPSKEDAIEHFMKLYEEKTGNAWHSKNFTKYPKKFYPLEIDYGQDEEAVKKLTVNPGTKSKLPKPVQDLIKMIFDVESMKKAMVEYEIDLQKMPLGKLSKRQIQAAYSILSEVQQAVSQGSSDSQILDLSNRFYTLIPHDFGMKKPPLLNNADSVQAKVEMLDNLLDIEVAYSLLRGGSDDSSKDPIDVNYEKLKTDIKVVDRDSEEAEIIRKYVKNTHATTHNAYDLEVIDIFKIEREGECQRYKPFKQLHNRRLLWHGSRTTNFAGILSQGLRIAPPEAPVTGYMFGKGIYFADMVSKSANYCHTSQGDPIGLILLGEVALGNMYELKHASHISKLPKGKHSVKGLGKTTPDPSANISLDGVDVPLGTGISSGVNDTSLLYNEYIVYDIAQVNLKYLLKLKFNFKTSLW

MDA-MB-436 cells [3] = experiment: Annexin V-FITC/PI apoptosis assay, flow cytometry; conditions: IC50 concentration, 48 h
Excerpt: medium was used as a negative control.
as §1

WI-38 = experiment: cytotoxicity against normal cells, MTT assay, WI-38; format: cell-based; conditions: Homo sapiens, normal cell line, read-out: IC50 (mean ± SEM) WI-38
Protocol: It has been reported that the frequency and severity of the side effects on normal healthy cells at therapeutic levels are deemed to be critical factors that distinguish different anticancer drugs from each other. […]
to the wells designated as “Blank”. The amount of PARP-1 required for the assay was then calculated. The reaction was initiated by adding 20 µL of diluted PARP-1 en zy me to the wells designated “Positive Control” and “Test Inhibitor Control”. The strip wells were incubated at room temperature for 1 hou r. The strip wells were then wash ed three times with 200 µL of PBST buffer.
Then, 50 µL of 50 times diluted Streptavidin-HRP with blocking buffer was added to each well, and the strips were further incubated at room temperature for 30 min. After washing the wells three times with 200 µL of PBST buffer, HRP colorimetric substrate was added to each well, and the plate was incubated at room temperature until a blue color was developed in the positive control well. Then, the reaction was quenched with 100 µL per well of 2 M sulfuric acid. Carrier solvent (DMSO 5%, v/v) was used as a negative control. All compounds including Ol ap arib were t ested at 5 concentrations (100, 10, 1, 0.1, and 0.01 µM). The optical density (OD) of each well was measured spectrophotometrically at 450 nm with an ELISA microplate reader (ChroMate-4300, FL, USA). The IC50 values were calculated according to the equation for Boltzmann sigmoidal concentration-response curves using the nonlin ear regression fitting model (GraphPad Prism Version 8). All assays were performed in triplicate in 3 repeated experiments. The obtained data are presented as means standard error of the means from 3 independent repeats (n = 3).
4.3.In vitro anticancer screening
The cell lines were purchased from the American Type Culture collection as follows:
Breast Cancer cell lines (MDA-MB-436) and WI38. Cytotoxic activity screening was performed using MTT assay. Exponentially, cells were placed in 10^4 cells/ well for 24 h, and then add fresh med ium containing different concen trations of the tested sample. Serial two-fold dilutions of the tested sample were added using a multichannel pipette. Moreover, all cells were cultivated at 37 °C, with 5% CO2 and 95% humidity. Also, incubation of control cells occurred at 3 7 ° C . […] Rinse the wells using water until no stain. After that, add 30% g lacial acetic acid to all wells with shaking plates on a Microplate reader (TECAN, Inc.) to measure the absorbance, using a test wavelength of 490 nm. Besides, compare the treated samples with the control cell. The cytotoxicity was estimated by IC50 in (μg /mL), the concentration that inhibits 50% of the growth of the examined cell.

Cc1cc(C)n(S(=O)(=O)c2ccc3[nH]c(=O)c(=O)[nH]c3c2)n1 [Compound 5, 6-((3,5-Dimethyl-1H-pyrazol-1-yl)sulfonyl)-1,4-dihydroquinoxaline-2,3-dione]
SI (MDA-MB-436; MDA-MB-436, matches IC50 WI-38 / IC50 MDA-MB-436): 31.77 | % viability MDA-MB-436 (MDA-MB-436; log conc. 0.193 (1.6uM)): 53.46% | % viability MDA-MB-436 (MDA-MB-436; log conc. 0.796 (6.3uM)): 45.17% | % viability MDA-MB-436 (MDA-MB-436; log conc. 1.398 (25uM)): 37.05% | % viability MDA-MB-436 (MDA-MB-436; log conc. 2 (100uM)): 28.36% | % viability MDA-MB-436 (MDA-MB-436; log conc. -0.409 (0.4uM)): 60.26% | IC50 (MDA-MB-436; read-out: IC50 (mean ± SEM) MDA-MB-436, mutant BRCA1 breast cancer cells, MTT): 2.57 ± 0.15 µM | times more potent than the reference drug (antiproliferative, MDA-MB-436) (MDA-MB-436; versus Olaparib): approximately 4 times | increase of autophagic cell death (MDA-MB-436 cells [1]): 68.65% | cell number in sub-G1 stage (MDA-MB-436 cells [2]; control 1.76%): 1.66% | percentage of cells in G2 stage (MDA-MB-436 cells [2]; control 25.12%): 30.39% | cell distribution in G1 phase (MDA-MB-436 cells [2]; control 51.96%): 40.89% | fold higher PARP-1 inhibitory activity than Olaparib (PARP-1; ratio of IC50 values): 1.5 fold | IC50 (PARP-1; read-out: IC50 (mean ± SEM) PARP-1): 0.00305 ± 0.00016 µM | normal intact cells (Q2-3) (MDA-MB-436 cells [3]): 96.98% | early apoptotic cell population (Q2-4) (MDA-MB-436 cells [3]; control 0.14%): 0.27% | late apoptotic cell population (Q2-2) (MDA-MB-436 cells [3]; control 0.98%): 1.02% | necrotic cell population (Q2-1) (MDA-MB-436 cells [3]; control 1.11%): 1.72% | IC50 (WI-38): 81.7 ± 1.7 µM
